Key:
Type in all cases: cell-based, human
[1] = tested on: WT (R2) TLO; test: ER stress induction by tunicamycin, WT TLOs; details: one week after removal of tunicamycin (5 hour challenge)
Experimental: (§1) We challenged for 5 hours with tunicamycin, a protein glycosylation inhibitor that prevents protein maturation and causes ER stress.^65 and measured ER stress components after 5 hrs, upon removal tunicamycin, and after 1 week (FIG. 7b). […] Of particular interest is ATF4, as ATF4 is an effector protein implicated not only in the UPR^ER via PERK phosphorylation but also in the integrated stress response (ISR)^66.
(§2) Total RNA was extracted according to manufacturer's instructions using the Direct-zol™ RNA Microprep (Zymo Research, Irvine, CA), and 500 ng of total RNA was reverse transcribed using the qScript™ XLT cDNA SuperMix (Quantabio, Beverly, MA). Technical triplicates of […] reaction (for use in Applied Biosystems QuantStudio7 384-well System, Waltham, MA) were prepared with 3 μl of diluted cDNA and run for 40 cycles. Relative gene expression was calculated based on the average cycle (Ct) value, normalized to GAPDH as the internal control and reported as fold change (2(−ddCT)).

[2] = tested on: HPS1−/− TLOs; details: one week after removal of tunicamycin
Experimental: as §1

[3] = tested on: ABCA3−/− TLOs; test: ER stress induction by tunicamycin, ABCA3-/- TLOs; details: one week after removal of tunicamycin; compared with HPS1−/− TLOs
Experimental: as §1, §2

[4] = tested on: HPS1−/− TLOs; test: ER stress induction by tunicamycin, HPS1-/- TLOs
Experimental: as §1, §2

[5] = tested on: TLOs; test: CHIR withdrawal from TLOs cultured in CK-DCI; details: 1 to 5 days after withdrawal of CHIR; Ki67, cCASP3, AT2 marker RT-PCR
Experimental: As removing WNT signaling has been reported to induce AT2 maturation in alveolospheres,^26,27 we withdrew CHIR.
Matrigel embedded lung organoids can be used for TLO generation when they reach d42 of development. Media was removed from the transwell and 1 ml of 2 mg/ml dispase (Corning) was added to release lung organoid from the Matrigel for 30-45 minutes in normoxic incubator. The organoid was transferred to a 15 ml conical tube and washed with stop media (DMEM (Corning), 5% FBS (Atlanta Biologicals; Flowery Branch, Georgia), 1% Glutamax (ThermoFisher)) to neutralize Dispase, then centrifuged at […] for 5 minutes. The pellet was incubated with 1 ml of 0.05% Trypsin/EDTA in normoxic incubator for 10-12 minutes with occasional pipetting with a P1000 pipet tip. Single cell dissociation was verified using a bright field microscope. If a single cell suspension was not obtained after 12 minutes, cells were washed with stop media and incubated for additional 5 minutes with 0.05% Trypsin/EDTA. Cells were counted using a hemocytometer and 400 cells/μl of undiluted Matrigel were plated in a well of a 12-well non-tissue culture plate. […]

[6] = tested on: TLOs; test: Distal differentiation of TLOs (removal of CHIR and KGF, TGF-b blockade with SB); details: removing CHIR and KGF and blocking TGF-b signaling using SB (DCI+SB)
Experimental: We next used empirical approaches to differentiate the cells into more mature proximal of distal lineages.
as §2

tunicamycin
expression of ER stress mediators (XBP1, BIP, CHOP, ATF4) [1]: expression of BIP, CHOP and ATF4 were strikingly increased
apoptosis [2]: increased apoptosis
expression of ER stress mediators [3]: A similar response, though less pronounced
expression of ER stress mediators (BIP, XBP1 splicing) ([4]; after 5 hrs tunicamycin challenge): significantly increased expression of BIP and of XBP1 splicing
expression of ER stress mediators (XBP1 splicing, CHOP, ATF4) ([4]; one week after removal of tunicamycin (5 hour challenge)): maintained elevated splicing of XBP1 but entirely failed to upregulate CHOP and ATF4

Cc1c[nH]c(-c2cnc(NCCNc3ccc(C#N)cn3)nc2-c2ccc(Cl)cc2Cl)n1 [CHIR, CHIR99021]
effect of CHIR withdrawal on TLOs [5]: disintegration, proliferation arrest (FIG. 3b), apoptosis (FIG. 3c) and loss of AT2 markers

NC(=O)c1ccc(-c2nc(-c3ccc4c(c3)OCO4)c(-c3ccccn3)[nH]2)cc1 [SB, SB431542]
expression of AT2 and AT1 markers [6]: further upregulation of not only AT2, but also of AT1 markers
